Measured values as given in patent publication US20030199694A1, “Thermally stable trimetrexates and processes for producing the same” (MedImmune Oncology, Inc., priority 1998, published 2003).
Blank lines part the entries; values can stand above or below the molecule they belong to.

Key:
[1] = tested on: murine tumors such as B16 melanoma, colon 26 and 38, L1210 and p388 leukemia and CD8F mammary tumors; details: cited from earlier work
[2] = cited from earlier work
[3] = Thermal stability of TMH relative to anhydrous trimetrexate: storage at 25° C. or 50° C., HPLC assay, impurities and moisture; format: physicochemical
Method: Samples of trimetrexate monohydrate and anhydrous trimetrexate were analyzed to compare the thermal stability of anhydrous trimetrexate with the trimetrexate monohydrate of the present invention. Anhydrous trimetrexate was prepared by dehydrating trimetrexate monohydrate. A sample of trimetrexate monohydrate (about 30 g) was placed in a Petri dish and dried in a vacuum dessicator over phosphorus pentoxide. The sample was dried at a pressure of about 100 microns for 6 days. The following procedure was used to assay the purity of trimetrexate monohydrate and anhydrous trimetrexate samples. Samples of the compounds were analyzed by HPLC. The mobile phase is prepared by first dissolving 5 g of sodium dodecyl sulfate (Aldrich 86,201-0 or equivalent) in 1100 mL water and adjusting the pH to 3.0 with glacial acetic acid (about 5 mL). 825 mL of HPLC grade acetonitrile is then added, and the solution mixed thoroughly, while avoiding excessive foaming. The unfiltered solution is then degassed by sonicating for 5 minutes. The solution is degassed immediately before use, and at the beginning of each day. Duplicate standard solutions are prepared with a trimetrexate reference compound at a concentration of 0.2 mg/mL in the mobile phase solution (“STD-1” and “STD-2”). The standard solutions are stored under refrigeration when not in use, and fresh solutions are prepared daily. Sample solutions of anhydrous trimetrexate and trimetrexate monohydrate are also prepared at 0.2 mg/mL in the mobile phase solution. The system is checked before testing the sample solutions by analyzing the reproducibility of trimetrexate peak area measurements for six injections of the standard trimetrexate solution (STD-1), trimetrexate peak symmetry, and agreement between the duplicate standard preparations. The acceptance criteria are as follows: For assay data, the HPLC operating parameters are as follows: [table] For the determination of impurities, the operating parameters are as before, except that the run time is extended to 30 minutes to detect all possible impurities and/or degradation products, and an attenuation of 32 is used. A mobile phase blank is first run, followed by a sample solution. Purity (%w/w)=[(mg found×100%)+mg sample weighed)]×[…] Peak Area (%)=[peak area (imp)÷(Σpeak area (all impurities+TMTX))]×100. Samples of the anhydrous and monohydrate compounds were initially assayed for purity and moisture content. The samples were stored for 4 weeks at either 25° C. or 50° C. HPLC chromatograms were recorded for the samples stored at each temperature after 3 days, 1 week, 2 weeks and 4 weeks of storage, and the samples assayed at each time interval for purity, impurities and water content. […] The peak at about 13 minutes corresponds to the non-degraded compound; this peak is truncated in the Figure in order to expand the y-axis to view the impurities. […] The “amine” entry in Table 9 corresponds to the amine degradation product which is prominent in FIG. 7 as the large peak at about 20 minutes in the anhydrous sample. This degradation product was isolated and identified as 6-aminomethyl-5-methyl-2,4-quinazolinediamine. It is a pale yellow powder, with a molecular formula of C10H13N5 and a formula weight of 203.25 g/mol. The structure of the compound is shown below [drawing 11]

[4] = tested on: murine cell lines such as L1210, L5178Y, S-180, W-256; details: cited from earlier work
[5] = tested on: human tumor cells lines derived from breast, colon, lung, ovary, renal and melanoma cells; details: human tumor cell lines from breast; cited from earlier work
[6] = Hygroscopicity; format: physicochemical
[7] = at 37° C.; cited from earlier work
[8] = stored at 25° C., 1 week, monohydrate
[9] = stored at 25° C., 2 weeks, monohydrate
[10] = stored at 25° C., 4 weeks, monohydrate
[11] = stored at 25° C., 3 days, monohydrate
[12] = stored at 50° C., 1 week, monohydrate
[13] = stored at 50° C., 2 weeks, monohydrate
[14] = stored at 50° C., 4 weeks, monohydrate
[15] = stored at 50° C., 3 days, monohydrate

- % Moisture ([3]; Initial): 0.1%
- Assay ([3]; Initial, before storage, HPLC purity): 98.5 w/w
- Total Impurities ([3]; Initial, HPLC): 0.3 % area
- Amine ([3]; Initial, degradation product 6-aminomethyl-5-methyl-2,4-quinazolinediamine, HPLC): 0.2 % area
- % Moisture ([3]; stored at 25° C., 1 week): 0.4%
- Amine ([3]; stored at 25° C., 1 week): 0.3 % area
- Assay ([3]; stored at 25° C., 1 week): 96.6 w/w
- Total Impurities ([3]; stored at 25° C., 1 week): 0.4 % area
- % Moisture ([3]; stored at 25° C., 2 weeks): 0.2%
- Amine ([3]; stored at 25° C., 2 weeks): 0.4 % area
- Assay ([3]; stored at 25° C., 2 weeks): 98.4 w/w
- Total Impurities ([3]; stored at 25° C., 2 weeks): 0.5 % area
- % Moisture ([3]; stored at 25° C., 4 weeks): <0.1%
- Amine ([3]; stored at 25° C., 4 weeks): 0.8 % area
- Assay ([3]; stored at 25° C., 4 weeks): 97.6 w/w
- Total Impurities ([3]; stored at 25° C., 4 weeks): 1.0 % area
- % Moisture ([3]; stored at 25° C., 3 days): 0.3%
- Amine ([3]; stored at 25° C., 3 days): 0.2 % area
- Assay ([3]; stored at 25° C., 3 days): 100.4 w/w
- Total Impurities ([3]; stored at 25° C., 3 days): 0.4 % area
- % Moisture ([3]; stored at 50° C., 1 week): 0.7%
- Amine ([3]; stored at 50° C., 1 week): 0.7 % area
- Assay ([3]; stored at 50° C., 1 week): 95.0 w/w
- Total Impurities ([3]; stored at 50° C., 1 week): 1.2 % area
- % Moisture ([3]; stored at 50° C., 2 weeks): 0.3%
- Amine ([3]; stored at 50° C., 2 weeks): 1.4 % area
- Assay ([3]; stored at 50° C., 2 weeks): 95.8 w/w
- Total Impurities ([3]; stored at 50° C., 2 weeks): 2.1 % area
- % Moisture ([3]; stored at 50° C., 4 weeks): <0.1%
- Amine ([3]; stored at 50° C., 4 weeks): 2.9 % area
- Assay ([3]; stored at 50° C., 4 weeks): 92.7 w/w
- Total Impurities ([3]; stored at 50° C., 4 weeks): 4.5 % area
- % Moisture ([3]; stored at 50° C., 3 days): 0.4%
- Amine ([3]; stored at 50° C., 3 days): 0.4 % area
- Assay ([3]; stored at 50° C., 3 days): 99.5 w/w
- Total Impurities ([3]; stored at 50° C., 3 days): 0.7 % area
SMILES: COc1cc(NCc2ccc3nc(N)nc(N)c3c2C)cc(OC)c1OC [Anhydrous, 2,4-diamino-5-methyl-6-[(3,4,5-trimethoxyanilino)methyl] quinazoline]
- therapeutic utility in vivo [1]: therapeutic utility
- water solubility [2]: < 0.1 mg/mL
- antitumor activity in vitro [4]: antitumor activity
- antitumor activity in vitro [5]: antitumor activity

- Assay ([3]; Initial, before storage, HPLC purity, monohydrate): 99.6 w/w
- Total Impurities ([3]; Initial, HPLC, monohydrate): 0.2 % area
- Amine ([3]; Initial, degradation product 6-aminomethyl-5-methyl-2,4-quinazolinediamine, HPLC, monohydrate): 0.1 % area
- % Moisture ([3]; Initial, monohydrate): 4.9%
- degradation products in HPLC chromatogram ([3]; after 4 weeks at 50° C., FIG. 7): no significant degradation products
- % Moisture [3, 8]: 4.5%
- Amine [3, 8]: 0.1 % area
- Assay [3, 8]: 96.3 w/w
- Total Impurities [3, 8]: 0.1 % area
- % Moisture [3, 9]: 4.9%
- Amine [3, 9]: 0.1 % area
- Assay [3, 9]: 99.4 w/w
- Total Impurities [3, 9]: 0.1 % area
- % Moisture [3, 10]: 4.3%
- Amine [3, 10]: 0.1 % area
- Assay [3, 10]: 99.6 w/w
- Total Impurities [3, 10]: 0.3 % area
- % Moisture [3, 11]: 4.7%
- Amine [3, 11]: 0.1 % area
- Assay [3, 11]: 101.4 w/w
- Total Impurities [3, 11]: 0.2 % area
- % Moisture [3, 12]: 4.6%
- Amine [3, 12]: 0.1 % area
- Assay [3, 12]: 98.6 w/w
- Total Impurities [3, 12]: 0.2 % area
- % Moisture [3, 13]: 4.8%
- Amine [3, 13]: 0.1 % area
- Assay [3, 13]: 98.7 w/w
- Total Impurities [3, 13]: 0.1 % area
- % Moisture [3, 14]: 4.4%
- Amine [3, 14]: 0.2 % area
- Assay [3, 14]: 99.6 w/w
- Total Impurities [3, 14]: 0.3 % area
- % Moisture [3, 15]: 4.7%
- Amine [3, 15]: 0.1 % area
- Assay [3, 15]: 99.4 w/w
- Total Impurities [3, 15]: 0.3 % area
- hygroscopicity [6]: non-hygroscopic
SMILES: COc1cc(NCc2ccc3nc(N)nc(N)c3c2C)cc(OC)c1OC [Monohydrate, trimetrexate monohydrate]

SMILES: COc1cc(NCc2ccc3nc(N)nc(N)c3c2C)cc(OC)c1OC.O=C(O)[C@H]1O[C@H](O)[C@H](O)[C@@H](O)[C@@H]1O [trimetrexate glucuronate]
- water solubility [2]: > 50 mg/mL
- half-life in solution [7]: 51.6 ± 0.8 days
